Laboratory results taken from PubChem BioAssay AID449750 (Broad Institute, 2010).
The source made the active and inactive calls. The rule behind the calls is not given here.

Assay: non-covalent RecA intein splicing inhibitors, dose response, biochemical, cell-free, fluorescence, secondary screen (AID 449750)

Structure (SMILES)	AC50
COc1ccc(-c2cc(C(=O)n3cnc4ccccc43)c3ccccc3n2)cc1	> 38 µM (inactive)
CCN(Cc1ccccc1)S(=O)(=O)c1ccc(C(=O)N(CCCN(C)C)c2nc3cc(C)cc(C)c3s2)cc1	15.1 µM
CCC(C)Nc1nc(Cl)nc(N(C#N)CN2C(=O)c3ccccc3S2(=O)=O)n1 (stereo unspecified)	> 38 µM (inactive)
N#C/C(=C/c1ccncc1)c1nc2ccccc2s1	> 38 µM (inactive)
COCc1[nH]nc2c1C(c1ccc(OC)cc1)C(C#N)=C(N)O2 (stereo unspecified)	32.2 µM
O=C(Sc1nnc(-c2ccccc2)o1)N1c2ccccc2Sc2ccccc21	11 µM
Cc1oc2c(c1C(=O)NCc1cccnc1)C(=O)c1ccccc1C2=O	1.4 µM
CCOC(=O)C1CCC2(CC1)C(C#N)=C(N)Oc1n[nH]c(C)c12 (stereo unspecified)	> 38 µM (inactive)
CCN(CC)CCOc1ccc(/C(=C(\Cl)c2ccccc2)c2ccccc2)cc1	9.57 µM
O=C(N/N=C/c1ccc(-c2ccccc2[N+](=O)[O-])o1)[C@H]1C[C@@H]1c1ccccc1	9.01 µM
O=c1[nH]c2ccc(Cl)cc2c(-c2ccccc2)c1SC(=S)N1CCCCC1	> 38 µM (inactive)
O=Cc1sc(=O)n(Cc2cccc(C(=O)O)c2)c1Cl	> 12 µM (inactive)
O=C(CN(c1cccc(Br)c1)S(=O)(=O)c1ccccc1)N/N=C/c1cc([N+](=O)[O-])ccc1O	> 38 µM (inactive)
CCn1c(O)c(N=Nc2cccc(S(=O)(=O)N3CCOCC3)c2)c(=O)n(CC)c1=S	> 38 µM (inactive)
CN1CCN(C2=C(Cl)C(=O)C(c3cnc(N4CCCCC4)s3)=C(Cl)C2=O)CC1	3.1 µM
Cc1cc(=O)n(-c2ccc(O)cc2)[nH]1	7.46 µM
Cc1cnnn1-c1ccc(C(=O)CCl)cc1	> 38 µM (inactive)
CC(=O)n1cc(N(C(=O)CCl)c2ccccc2)c2ccccc21	3.56 µM
Cc1[nH][nH]c(=O)c1C(c1ccc2c(c1)OCO2)c1c(C)[nH][nH]c1=O	19 µM
CCOc1ccccc1C1C(C#N)=C(N)Nc2onc(-c3ccccc3)c21 (stereo unspecified)	33.4 µM
CCCCOc1ccc(C2C3CN(C(=O)OCC)CC=C3C(C#N)=C(N)C2(C#N)C#N)cc1OC (stereo unspecified)	> 38 µM (inactive)
O=C(NC1CCCC1)C(c1ccc(F)cc1)N(Cc1ccccc1Cl)C(=O)CCl (stereo unspecified)	0.802 µM

Structure (SMILES)	AC50
Cc1nn(CCc2nn[nH]n2)c2nc(-c3ccc(C4CCCCC4)cc3)cc(C(F)(F)F)c12	24.6 µM
COc1ccc(N(Cc2cc(=O)[nH]c3ccccc23)C(=O)CCl)cc1	8.33 µM
N#CC1=C(N)Oc2n[nH]c(-c3cccs3)c2C1c1cccnc1 (stereo unspecified)	> 38 µM (inactive)
COc1cc(/C=C/c2sc3ccccc3[n+]2CCCS(=O)(=O)[O-])ccc1O	> 38 µM (inactive)
CCN(Cc1ccc(OC)c(F)c1)C(=O)CCl	11.9 µM
CCCc1[nH]nc2c1C(c1ccc(OC(=O)N3CCOCC3)c(OC)c1)C(C#N)=C(N)O2 (stereo unspecified)	> 38 µM (inactive)
CC(=O)Oc1c(/C=C(\C#N)C(N)=O)[nH]c2ccccc12	> 38 µM (inactive)
N#C/C(=C\c1cccc(O)c1)c1nc2ccccc2o1	> 38 µM (inactive)
O=[N+]([O-])c1ccc(Sc2nnnn2-c2ccccc2)nc1	> 38 µM (inactive)
CCOC(=O)N1CCC2(CC1)C(C#N)=C(N)Oc1n[nH]c(C)c12	> 38 µM (inactive)
Oc1cccc(C=Nc2cccc3ccccc23)c1O	4.42 µM
CCCn1nc([N+](=O)[O-])c(C(C#N)c2nc3ccccc3s2)c(Cl)c1=O (stereo unspecified)	23.4 µM
CCCc1c(-c2ccc(O)cc2)nn(-c2ccc(O)cc2)c1-c1ccc(O)cc1	4.37 µM
Cc1[nH]nc2c1C(c1cccs1)C(C#N)=C(N)O2 (stereo unspecified)	> 38 µM (inactive)
Cc1ccc(NC(=O)CCl)cc1S(=O)(=O)N1CCCCCC1	10 µM
COc1cc(C2C(C#N)=C(N)Oc3c2c(-c2ccccc2)nn3-c2ccccc2)cc(OC)c1OC (stereo unspecified)	29.9 µM
COC(=O)Cc1[nH]nc2c1C1(CCSCC1)C(C#N)=C(N)O2	> 12 µM (inactive)
CC1=NNC(=O)C1C(c1ccccc1)C(C#N)C#N (stereo unspecified)	> 38 µM (inactive)
Cc1ccc(C(=O)N/N=C/c2ccc(-c3ccccc3[N+](=O)[O-])o2)cn1	9.17 µM
Nc1ccc2nc[nH]c2c1	10.6 µM
Cc1ccsc1C=Nc1ccc(O)cc1	> 38 µM (inactive)
CC(=O)C1=C(c2ccc(Br)cc2)C(=O)c2ccccc2C1=O	7.18 µM

Structure (SMILES)	AC50
O=C1Cc2ccccc2C(=O)N1Cc1ccccc1	> 38 µM (inactive)
O=C(Nc1ccccc1)c1nnsc1S(=O)(=O)c1ccc(Cl)cc1	> 38 µM (inactive)
COc1ccc(Nc2ccc(OC)cc2)cc1	> 38 µM (inactive)
CCc1ccc(S(=O)(=O)/N=C2\C=CC(=O)c3ccccc32)cc1	2.6 µM
[O-]C1=N/[N+](=C/c2ccccc2Cl)CC1	> 38 µM (inactive)
O=C1C(Cl)=C(N2CCCCC2)C(=O)N1c1ccccc1Cl	> 38 µM (inactive)
Cc1ccccc1NC1=C/C(=N\S(=O)(=O)c2ccc(C(=O)O)cc2)c2ccccc2C1=O	14.7 µM
CN1CCN(C(c2ccc(Cl)cc2)c2cc(Cl)c3cccnc3c2O)CC1 (stereo unspecified)	24.8 µM
Cn1c(O)c(C2=NN(C(=O)CCl)C(c3ccccc3)C2)c(=O)n(C)c1=O (stereo unspecified)	26.2 µM
Oc1cc(O)c2c(c1)O[C@H](c1ccc(O)c(O)c1)[C@H](O)C2	> 38 µM (inactive)
Cc1cc(C(=O)CN2C(=O)c3ccccc3C2=O)c(C)n1C1CC1	> 38 µM (inactive)
CSc1nc(O)c(Nc2cccc(Cl)c2)c(=O)[nH]1	> 38 µM (inactive)
CCOC(=O)C1CCN(S(=O)(=O)c2c(Cl)ccc3nonc23)CC1	11.6 µM
CCOc1ccc(S(=O)(=O)Nc2cc(SCC(=O)O)c(O)c3ccccc23)cc1	2.81 µM
Cc1[nH]n(-c2ccccc2)c(=O)c1/C=N\NC(=O)C1COc2ccccc2O1 (stereo unspecified)	8.94 µM
Cc1ccc(NC2=C(NC(=O)c3ccccc3)C(=O)c3ccccc3C2=O)cc1Cl	7.45 µM
COc1cc(C2C(C#N)=C(N)Oc3n[nH]c(C)c32)ccc1OC(=O)c1ccccc1 (stereo unspecified)	> 38 µM (inactive)
COc1cc(C(C(=O)NC2CCCCC2)N(CCN2CCOCC2)C(=O)C2COc3ccccc3O2)cc(OC)c1OC (stereo unspecified)	> 38 µM (inactive)
CCOC(=O)Cc1c(C)c2c(C)[nH]nc2oc1=O	> 38 µM (inactive)
Cc1ccc(S(=O)(=O)N(C(=O)c2ccncc2)c2ccc(OC(=O)c3ccncc3)c3ccccc23)c(C)c1	16.9 µM
CCCc1[nH]nc2c1C(c1ccoc1)C(C#N)=C(N)O2 (stereo unspecified)	> 38 µM (inactive)
O=C(CCl)Nc1cccc(S(=O)(=O)N2CCCCCC2)c1	> 38 µM (inactive)

Structure (SMILES)	AC50
O=C(NC1CCCC1)C(c1ccc(F)cc1)N(Cc1ccc(F)cc1)C(=O)CCl (stereo unspecified)	2.96 µM
Cc1ccc(C(c2c(C)[nH][nH]c2=O)c2c(C)[nH][nH]c2=O)cc1[N+](=O)[O-]	32.1 µM
CCc1ccc(S(=O)(=O)/N=C2\C=C(Nc3ccc(C(=O)O)cc3)C(=O)c3ccccc32)cc1	0.348 µM
O=C(Cc1cc(=O)[nH][nH]1)N/N=C/c1ccccc1Cl	15.8 µM
O=c1cc(-c2cccc([N+](=O)[O-])c2)[nH][nH]1	9.77 µM
C/C(CC(=O)Nc1ccccn1)=N\NC(=O)c1ccncc1	28.8 µM
O=C(Oc1ccc(Br)cc1C(=S)N1CCOCC1)c1cccc([N+](=O)[O-])c1	> 38 µM (inactive)
ClC(Cl)(Cl)c1nc2ccccc2n2nncc12	> 38 µM (inactive)
CC(C)c1nnc(NC(=O)CCS(=O)(=O)c2nc(-c3cccs3)cc(C(F)(F)F)n2)s1	> 38 µM (inactive)
C/C(CC(=O)Nc1cccnc1)=N\NC(=O)c1ccc([N+](=O)[O-])c(Cl)c1	> 38 µM (inactive)
C#CCOC(=O)c1ccccc1C(=O)n1nnc2ccccc21	> 38 µM (inactive)
CCCc1[nH]nc2c1C(CCC)C(C#N)=C(N)O2 (stereo unspecified)	> 38 µM (inactive)
O=C(CCl)Nc1cn(-c2ccccc2)nc1-c1ccccc1	7.77 µM
Cc1cc(O)c(C(C)C)cc1N=Cc1ccccc1O	5.1 µM
O=C1C(Cl)=C(N2CCOCC2)C(=O)N1c1ccc(Br)cc1	> 38 µM (inactive)
Cc1cc(C)c(S(=O)(=O)/N=C2\C=C(Nc3ccc(C(=O)O)cc3)C(=O)c3ccccc32)c(C)c1	0.669 µM
CC1=NN(c2ccccc2)C(=O)C1	3.24 µM
Nc1ccc2c(c1)C(=O)C(=O)c1ccccc1-2	17.6 µM
COc1ccc(C2CC(c3cccs3)=NN2C(=O)CSC2=NCCS2)cc1 (stereo unspecified)	38.2 µM
COc1ccc(Nc2nc(N3CCCCC3)nc3ccccc23)c(OC)c1	> 38 µM (inactive)
Cc1nn(Cc2ccccc2)c2c1C(c1ccco1)C(C#N)=C(N)O2 (stereo unspecified)	> 38 µM (inactive)
CC(=O)Nc1cc(OC(=O)c2ccco2)cc(OC(=O)c2ccco2)c1	11.8 µM

Structure (SMILES)	AC50
O=c1[nH]c(Nc2ccccc2Cl)cc2ccccc12	15.5 µM
CSc1nnc(NC(=O)c2nc(S(=O)(=O)Cc3ccc(C)cc3)ncc2Cl)s1	> 38 µM (inactive)
CC(=O)N(Cc1ccc(F)cc1)C1=C(NCCc2ccccc2)C(=O)c2ccccc2C1=O	7.58 µM
CCOC(=O)c1oc2nc(CC(C)C)c3c(c2c1N)CCC3	> 38 µM (inactive)
CCOC(=O)/C(C#N)=C\c1ccc(O)c(OC)c1	> 38 µM (inactive)
O=C(N/N=C/c1ccc(OC(=O)c2ccco2)cc1)c1ccc[n+]([O-])c1	> 38 µM (inactive)
CCOC(=O)c1cc(C)sc1NC(=O)CSC1=NCCS1	19.6 µM
N#Cc1c(-c2ccccc2)nc(SCC(=O)N2c3ccccc3Sc3ccccc32)[nH]c1=O	8.24 µM
Cc1cc(C(=O)c2ccc(C(C)(C)C)cc2)c(NC(=O)CCl)s1	9.8 µM
Cc1ccc(C)c(Sc2ccc(NC(=O)CCl)cc2)c1	1.27 µM
CCOc1cc(/C=C2\C(=O)N(c3ccc(C(N)=O)cc3)N=C2C)ccc1OC(=O)c1cccs1	2.76 µM
COc1ccc(CN(CCC(c2ccccc2)c2ccc(OC(C)C)cc2)C(=O)CCl)cc1OC (stereo unspecified)	0.569 µM
COc1ccc(C(c2c(C)[nH][nH]c2=O)c2c(C)[nH][nH]c2=O)cc1Br	11.2 µM
CCOC(=O)C1=C(c2ccccc2)O/C(=C(/C#N)C(F)(F)F)S1	> 38 µM (inactive)
CCc1cccc(CC)c1NC(=O)/C(C#N)=C/c1ccccc1C(F)(F)F	11.6 µM
ClCc1nnc(-c2cc3c(s2)CCCC3)o1	> 38 µM (inactive)
CC1=NNC(=O)C1Cc1ccccc1 (stereo unspecified)	> 38 µM (inactive)
O=C(Oc1cccc(OC(=O)c2ccco2)c1)c1ccco1	5.11 µM
